Results reported in ChEMBL document CHEMBL3593188, “Exploring the size adaptability of the B ring binding zone of the colchicine site of tubulin with para-nitrogen substituted isocombretastatins” (Eur J Med Chem, 2015).
In brackets after ≈: the same amount, converted by molar mass. Activity calls are given as the source filed them. No cut-off for these calls is given here.

Columns and labels:
[1] = Inhibition of calf brain tubulin polymerization after 20 mins by spectrophotometric analysis; parameters: species or system Bos taurus
HT-29 [2] = experiment: Cytotoxicity against human HT-29 cells assessed as inhibition of cell proliferation after 72 hrs by XTT assay; format: functional, cell-based; details: HT-29, 72 h
[3] = Aqueous solubility of the compound in phosphate buffer at pH 7 after 48 hrs by spectrophotometric analysis; format: physicochemical
HeLa = experiment: Cytotoxicity against human HeLa cells assessed as inhibition of cell proliferation after 72 hrs by XTT assay; format: functional, cell-based
HL-60 = experiment: Cytotoxicity against human HL60 cells assessed as inhibition of cell proliferation after 72 hrs by XTT assay; format: functional, cell-based; details: HL-60, 72 h
HT-29 [4] = experiment: Cell cycle arrest in human HT-29 cells assessed as accumulation at G2/M phase at 100 nM after 24 hrs by propidium iodide staining-based flow cytometric analysis; format: functional
HT-29 [5] = experiment: Cell cycle arrest in human HT-29 cells assessed as accumulation at G2/M phase at 50 nM after 24 hrs by propidium iodide staining-based flow cytometric analysis; format: functional
HCT-116 = experiment: Induction of microtubule disruption in human HCT116 cells at 50 nM after 24 hrs by DAPI staining-based confocal microscopic analysis; format: cell-based
HT-29 [6] = experiment: Inhibition of autophagy in human HT-29 cells assessed as accumulation of slower migrating LC3-I band at 35 nM after 24 to 72 hrs by Western blot analysis; format: functional, cell-based
HT-29 [7] = experiment: Inhibition of autophagy in human HT-29 cells assessed as absence of faster migrating LC3-II band decay at 35 nM after 24 to 72 hrs by Western blot analysis; format: functional, cell-based

| IC50 [1] | solubility at 48 h [3] | Compound | IC50 (HT-29 [2]) | IC50 (HeLa) | IC50 (HL-60) | Activity (HT-29 [4]) | Activity (HT-29 [5]) | Activity (HCT-116) | inhibition (HT-29 [6]) | inhibition (HT-29 [7]) |
| --- | --- | --- | --- | --- | --- | --- | --- | --- | --- | --- |
| > 10 µM | 74 µg/mL (≈ 224 µM) | COc1cc(/C(=N/O)c2ccc(N(C)C)cc2)cc(OC)c1OC | 10 µM | 0.8 µM | 0.6 µM | – | – | – | – | – |
| > 10 µM | 107 µg/mL (≈ 313 µM) | C=C(c1ccc(N(C)C)c(C=O)c1)c1cc(OC)c(OC)c(OC)c1 | > 1 µM | 0.8 µM | 0.9 µM | – | – | – | – | – |
| > 20 µM | 3.7 µg/mL (≈ 10.3 µM) | COc1cc(C(=O)c2ccc(N(C)C)c([N+](=O)[O-])c2)cc(OC)c1OC | > 1 µM | > 1 µM | > 1 µM | – | – | – | – | – |
| > 5 µM | 13.7 µg/mL (≈ 38.4 µM) | COc1cc(/C(=N/O)c2ccc(N3CCCC3)cc2)cc(OC)c1OC | > 1 µM | 0.6 µM | 0.4 µM | – | – | – | – | – |
| 0.9 µM | 2.5 µg/mL (≈ 6.45 µM) | C=C(c1cc(OC)c(OC)c(OC)c1)c1ccc2c(c1)c1ccccc1n2CC | 0.2 µM | 0.08 µM | 0.09 µM | Active | – | – | – | – |
| > 5 µM | 84 µg/mL (≈ 248 µM) | C=C(c1ccc(N(C)C)c(C#N)c1)c1cc(OC)c(OC)c(OC)c1 | 0.96 µM | 0.4 µM | 0.8 µM | – | – | – | – | – |
| > 20 µM | – | COc1cc(C(=O)c2ccc(N(C)C)cc2)cc(OC)c1OC | 0.4 µM | 0.09 µM | 0.2 µM | – | – | – | – | – |
| > 5 µM | – | C=C(c1ccc(N(C)C)c(N)c1)c1cc(OC)c(OC)c(OC)c1 | 0.6 µM | 0.5 µM | 0.4 µM | – | – | – | – | – |
| > 5 µM | 2.6 µg/mL (≈ 7.62 µM) | COc1cc(C(=O)c2ccc(N3CCCC3)cc2)cc(OC)c1OC | > 1 µM | 0.8 µM | 0.8 µM | – | – | – | – | – |
| > 5 µM | – | COc1cc(C(=O)c2ccc(N(C)C)c(N)c2)cc(OC)c1OC | 0.9 µM | 0.6 µM | 0.7 µM | – | – | – | – | – |
| > 5 µM | 123 µg/mL (≈ 345 µM) | C=C(c1ccc(N(C)C)c(C=NO)c1)c1cc(OC)c(OC)c(OC)c1 | > 1 µM | 0.9 µM | 1 µM | – | – | – | – | – |
| 1.1 µM | 1.3 µg/mL (≈ 3.83 µM) | C=C(c1ccc(N2CCCC2)cc1)c1cc(OC)c(OC)c(OC)c1 | 0.6 µM | 0.2 µM | 0.4 µM | Active | – | – | – | – |
| > 20 µM | 8.9 µg/mL (≈ 25.9 µM) | COc1cc(C(=O)c2ccc(N(C)C)c(C=O)c2)cc(OC)c1OC | > 1 µM | > 1 µM | > 1 µM | – | – | – | – | – |
| 1.6 µM | 4.2 µg/mL (≈ 10.4 µM) | CCn1c2ccccc2c2cc(/C(=N/O)c3cc(OC)c(OC)c(OC)c3)ccc21 | 0.3 µM | 0.1 µM | 0.1 µM | inactive | – | – | – | – |
| > 5 µM | 11 µg/mL (≈ 28.5 µM) | C=C(c1cc(OC)c(OC)c(OC)c1)c1ccc(N(C)C)c(C2OCCO2)c1 | > 1 µM | 0.6 µM | 0.8 µM | – | – | – | – | – |
| 1.6 µM | 2 µg/mL (≈ 5.14 µM) | CCn1c2ccccc2c2cc(C(=O)c3cc(OC)c(OC)c(OC)c3)ccc21 | 0.4 µM | 0.7 µM | 0.7 µM | inactive | – | – | – | – |
| 1.5 µM | 1.8 µg/mL (≈ 4.48 µM) | C/C=C(/c1cc(OC)c(OC)c(OC)c1)c1ccc2c(c1)c1ccccc1n2CC | 0.56 µM | 0.7 µM | 0.4 µM | inactive | – | – | – | – |

| Compound | IC50 [1] | solubility at 48 h [3] | IC50 (HT-29 [2]) | IC50 (HeLa) | IC50 (HL-60) | Activity (HT-29 [4]) | Activity (HT-29 [5]) | Activity (HCT-116) | inhibition (HT-29 [6]) | inhibition (HT-29 [7]) |
| --- | --- | --- | --- | --- | --- | --- | --- | --- | --- | --- |
| COc1ccc(/C=C\c2cc(OC)c(OC)c(OC)c2)cc1O [COMBRETASTATIN A4] | 3 µM | – | 0.03 µM | – | – | – | – | – | – | – |
| C=C(c1ccc(N(C)C)cc1)c1cc(OC)c(OC)c(OC)c1 | 1.9 µM | 30 µg/mL (≈ 95.7 µM) | 0.07 µM | 0.04 µM | 0.01 µM | – | >85% | Active | Active | Active |
